# Laboratory results from US20080306056A1, “PYRAZOLE-DERIVATIVES AS FACTOR Xa INHIBITORS” (SANOFI-AVENTIS DEUTSCHLAND GMBH, priority 2002, published 2008).
# Molecular target: T1, human factor Xa (Homo sapiens, UniProt P00742)
# T1 construct: 25 μl human factor Xa (Enzyme Research Laboratories, Inc; South Bend, Ind.); purchased Enzyme Research Laboratories, Inc; South Bend, Ind
# Experiment: Factor Xa assay (chromogenic, purified enzyme)
# Assay type: biochemical
# Conditions: inhibition constant for factor Xa; chromogenic substrate S-2765 140 μM, enzyme 0.5 nM, 25° C., pH 7.8; Ki=IC50/{1+(substrate concentration/Km)}; read-out: Ki(FXa)
# Source text: The ability of the compound of formulae I, Ib and Ic to inhibit factor Xa or factor VIIa or other enzymes like thrombin, plasmin, or trypsin can be assessed by determining the concentration of the compound of the formulae I, Ib and Ic that inhibits enzyme activity by 50%, i.e. the IC50 value, which was related to the inhibition constant Ki. Purified enzymes were used in chromogenic assays. The concentration of inhibitor that causes a 50% decrease in the rate of substrate hydrolysis was determined by linear regression after plotting the relative rates of hydrolysis (compared to the uninhibited control) versus the log of the concentration of the compound of formulae I, Ib and Ic. For calculating the inhibition constant Ki, the IC50 value was corrected for competition with substrate using the formula wherein Km is the Michaelis-Menten constant (Chen and Prusoff, Biochem.
# Ki=IC50/{1+(substrate concentration/Km)}
# Pharmacol. 22 (1973) 3099-3108; I. H. Segal, Enzyme Kinetics, 1975, John Wiley & Sons, New York, 100-125; which were incorporated herein by reference).
# The IC50 was determined by combining in appropriate wells of a Costar half-area microtiter plate 25 μl human factor Xa (Enzyme Research Laboratories, Inc.; South Bend, Ind.) in TBS-PEG; 40 μl 10% (v/v) DMSO in TBS-PEG (uninhibited control) or various concentrations of the compound to be tested diluted in 10% (v/v) DMSO in TBS-PEG; and substrate S-2765 (N(α)-benzyloxycarbonyl-D-Arg-Gly-L-Arg-p-nitroanilide; Kabi Pharmacia, Inc.; Franklin, Ohio) in TBS-PEG.
# The assay was performed by pre-incubating the compound of formulae I, Ib and Ic plus enzyme for 10 min. Then the assay was initiated by adding substrate to obtain a final volume of 100 μl. The initial velocity of chromogenic substrate hydrolysis was measured by the change in absorbance at 405 nm using a Bio-tek Instruments kinetic plate reader (Ceres UV900HDi) at 25° C. during the linear portion of the time course (usually 1.5 min after addition of substrate). The enzyme concentration was 0.5 nM and substrate concentration was 140 μM.
# The inhibitory activity towards factor VIIa/tissue factor activity was determined using a chromogenic assay essentially as described previously (J. A. Ostrem et al., Biochemistry 37 (1998) 1053-1059 which was incorporated herein by reference). Kinetic assays were conducted at 25° C. in half-area microtiter plates (Costar Corp., Cambridge, Mass.) using a kinetic plate reader (Molecular Devices Spectramax 250). A typical assay consisted of 25 μl human factor VIIa and TF (5 nM and 10 nM, respective final concentration) combined with 40 μl of inhibitor dilutions in 10% DMSO/TBS-PEG buffer (50 mM Tris, 15 mM NaCl, 5 mM CaCl2, 0.05% PEG 8000, pH 8.15). Following a 15 minute preincubation period, the assay was initiated by the addition of 35 μl of the chromogenic substrate S-2288 (D-Ile-Pro-Arg-p-nitroanilide, Pharmacia Hepar Inc., 500 μM final concentration).
# T1 sequence (P00742 235-488 limits assumed): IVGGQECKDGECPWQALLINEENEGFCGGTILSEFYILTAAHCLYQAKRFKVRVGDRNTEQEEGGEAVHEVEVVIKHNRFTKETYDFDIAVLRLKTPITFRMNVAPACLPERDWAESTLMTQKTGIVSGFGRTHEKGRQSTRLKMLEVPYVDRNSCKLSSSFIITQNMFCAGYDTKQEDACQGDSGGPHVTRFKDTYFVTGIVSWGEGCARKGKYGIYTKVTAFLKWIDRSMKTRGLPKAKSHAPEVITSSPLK
# T1 sequence (P00742 41-179 partner limits assumed): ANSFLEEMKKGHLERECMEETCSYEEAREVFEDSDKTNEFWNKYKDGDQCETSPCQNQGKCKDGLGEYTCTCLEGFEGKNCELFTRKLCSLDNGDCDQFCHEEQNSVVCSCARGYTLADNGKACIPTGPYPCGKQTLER
row,SMILES,Ki [nM]
1,"COC[C@@H]1CCCN1C(=O)c1cc(C(=O)NC2CCN(C(C)C)CC2)n(Cc2cc(-c3ccc(Cl)s3)on2)n1 [Example 66, 2-[5-(5-Chloro-thiophen-2-yl)-isoxazol-3-ylmethyl]-5-(2S,2-methoxymethyl-pyrrolidine-1-carbonyl)-2H-pyrazole-3-carboxylic acid (1-isopropyl-piperidin-4-yl)-amide]",152
2,"CCOC(=O)CNC(=O)c1cc(C(=O)NC2CCN(C(C)C)CC2)n(Cc2cc(-c3ccc(Cl)s3)on2)n1 [Example 61, {[1-[5-(5-Chloro-thiophen-2-yl)-isoxazol-3-ylmethyl]-5-(1-isopropyl-piperidin-4-ylcarbamoyl)-1H-pyrazole-3-carbonyl]-amino}-acetic acid ethyl ester]",101
3,"COC(=O)c1cc(C(=O)NC2CCN(C(C)C)CC2)n(CC(=O)Nc2ccc(Cl)cn2)n1 [Example 50, 1-[(5-Chloro-pyridin-2-ylcarbamoyl)-methyl]-5-(1-isopropyl-piperidin-4-ylcarbamoyl)-1H-pyrazole-3-carboxylic acid methyl ester]",10
4,"CC(C)N1CCC(NC(=O)c2cc(-c3ccc(Cl)s3)nn2Cc2cc(-c3ccc(Cl)s3)on2)CC1 [Example 5, 5-(5-Chloro-thiophen-2-yl)-2-[5-(5-chloro-thiophen-2-yl)-isoxazol-3-ylmethyl]-2H-pyrazole-3-carboxylic acid (1-isopropyl-piperidin-4-yl)-amide]",300
5,"CC(C)N1CCC(NC(=O)c2cc(C(=O)NCCCO)nn2Cc2cc(-c3ccc(Cl)s3)on2)CC1 [Example 62, 1-[5-(5-Chloro-thiophen-2-yl)-isoxazol-3-ylmethyl]-1H-pyrazole-3,5-dicarboxylic acid 3-[(3-hydroxy-propyl)-amide] 5-[(1-isopropyl-piperidin-4-yl)-amide]]",80
6,"CC(C)N1CCC(NC(=O)c2cc(C(=O)N3CCN(CCO)CC3)nn2Cc2cc(-c3ccc(Cl)s3)on2)CC1 [Example 30, 2-[5-(5-Chloro-thiophen-2-yl)-isoxazol-3-ylmethyl]-5-[4-(2-hydroxy-ethyl)-piperazine-1-carbonyl]-2H-pyrazole-3-carboxylic acid (1-isopropyl-piperidin-4-yl)-amide]",262
7,"CC(C)N1CCC(NC(=O)c2cc(C(=O)N3CCOC3=O)nn2Cc2cc(-c3ccc(Cl)s3)on2)CC1 [Example 72, 2-[5-(5-Chloro-thiophen-2-yl)-isoxazol-3-ylmethyl]-5-(2-oxo-oxazolidine-3-carbonyl)-2H-pyrazole-3-carboxylic acid (1-isopropyl-piperidin-4-yl)-amide]",92
8,"CC(C)N1CCC(NC(=O)c2cc(C(=O)NCCS(N)(=O)=O)n(Cc3cc(-c4ccc(Cl)s4)on3)n2)CC1 [Example 87, 1-[5-(5-Chloro-thiophen-2-yl)-isoxazol-3-ylmethyl]-1H-pyrazole-3,5-dicarboxylic acid 3-[(1-isopropyl-piperidin-4-yl)-amide] 5-[(2-sulfamoyl-ethyl)-amide]]",181
9,"O=C(NCC1CCN(c2ccncc2)CC1)c1cc(-c2cccs2)nn1Cc1cc(-c2ccc(Cl)s2)on1 [Example 16, 2-[5-(5-Chloro-thiophen-2-yl)-isoxazol-3-ylmethyl]-5-thiophen-2-yl-2H-pyrazole-3-carboxylic acid (3,4,5,6-tetrahydro-2H-[1,4′]bipyridinyl-4-ylmethyl)-amide]",165
10,"CC(C)N1CCC(NC(=O)c2cc(-c3cccs3)nn2Cc2cc(-c3ccc(Cl)s3)on2)CC1 [Example 1, 2-[5-(5-Chloro-thiophen-2-yl)-isoxazol-3-ylmethyl]-5-thiophen-2-yl-2H-pyrazole-3-carboxylic acid (1-isopropyl-piperidin-4-yl)-amide]",30
11,"CC(C)N1CCC(NC(=O)c2cc(C(=O)OCCO)nn2Cc2cc(-c3ccc(Cl)s3)on2)CC1 [Example 110, 1-[5-(5-Chloro-thiophen-2-yl)-isoxazol-3-ylmethyl]-5-(1-isopropyl-piperidin-4-ylcarbamoyl)-1H-pyrazole-3-carboxylic acid 2-hydroxy-ethyl ester]",81
